Measured values from BindingDB's records for doi:10.1111/j.1471-4159.1979.tb04553.x (1979).

The molecules below were run against Gamma-aminobutyric acid type B receptor subunit 1 (UniProt Q9Z0U4).
Chain of Gamma-aminobutyric acid type B receptor subunit 1 (Q9Z0U4 whole entry): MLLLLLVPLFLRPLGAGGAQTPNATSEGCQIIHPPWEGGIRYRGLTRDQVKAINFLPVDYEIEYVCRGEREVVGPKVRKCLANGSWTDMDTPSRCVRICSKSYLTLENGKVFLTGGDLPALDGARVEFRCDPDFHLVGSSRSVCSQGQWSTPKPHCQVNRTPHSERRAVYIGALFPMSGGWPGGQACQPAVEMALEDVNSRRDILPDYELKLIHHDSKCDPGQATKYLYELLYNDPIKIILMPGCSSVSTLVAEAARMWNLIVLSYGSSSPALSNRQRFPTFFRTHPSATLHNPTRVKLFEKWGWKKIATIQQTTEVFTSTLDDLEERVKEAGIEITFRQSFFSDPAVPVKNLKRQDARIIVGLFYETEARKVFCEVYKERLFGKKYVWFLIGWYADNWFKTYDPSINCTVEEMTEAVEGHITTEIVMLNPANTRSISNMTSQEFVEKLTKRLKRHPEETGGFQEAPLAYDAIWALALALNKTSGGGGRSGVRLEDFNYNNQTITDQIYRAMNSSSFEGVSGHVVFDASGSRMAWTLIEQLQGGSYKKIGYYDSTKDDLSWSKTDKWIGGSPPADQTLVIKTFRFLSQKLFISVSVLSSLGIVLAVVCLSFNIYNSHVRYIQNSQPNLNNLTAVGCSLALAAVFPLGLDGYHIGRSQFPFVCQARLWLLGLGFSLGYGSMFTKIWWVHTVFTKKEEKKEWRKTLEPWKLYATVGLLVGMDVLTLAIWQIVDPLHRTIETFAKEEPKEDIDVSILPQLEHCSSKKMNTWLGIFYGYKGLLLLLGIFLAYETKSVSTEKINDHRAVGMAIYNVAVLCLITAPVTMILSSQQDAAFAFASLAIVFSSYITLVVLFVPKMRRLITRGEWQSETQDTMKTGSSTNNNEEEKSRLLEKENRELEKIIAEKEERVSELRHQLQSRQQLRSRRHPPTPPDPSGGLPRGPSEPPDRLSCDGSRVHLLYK

| Compound | Ki [µM] |
| --- | --- |
| NCc1cc(=O)[nH]o1 | 0.01 |
| c1c[nH]cn1 | 0.229 |
| O=C(O)[C@@H]1CCCNC1 (racemic) [Nipecotic] | > 10 |
| N[C@@H]1C(=O)N2C(C(=O)O)=C(CSc3cnn[nH]3)CS[C@H]12 [CAS_37539-03-0] | 0.051 |
| CC(C)(O)C1C2OC(=O)C1C1(O)CC3OC34C(=O)OC2C14C (stereo not given) [NSC_5311359] | > 10 |
